Here are results for six compounds from patent US6231875A, “Acidified composition for topical treatment of nail and skin conditions” (Johnson & Johnson Consumer Companies, Inc., priority 1999, dated 2001).

Tested on in the first data set: not listed separately
In words: pH measurement of acidifiers with a glass electrode. Format: physicochemical. Conditions: after 1 min. From the text: Apparent pH is the pH reading measured by a glass pH electrode. The preferred acidifiers are 37% HCl, 10% HCl, sulfuric acid, o-phosphoric acid, nitric acid, acetic acid, L (+)-lactic acid, salicylic acid, and glycolic acid. The particularly preferred acidifiers are 37% HCl and 10% HCl. If the total weight of the acidified composition is 100 parts, the acidifier should be about 0.05 to about 50% w/w (w/w=weight/weight), preferably, from about 0.1% to about 10%, more preferably form about 0.5% to about 5%.
For the compound `CC(=O)O` [Acetic acid], the pH reading was -0.19 to -0.28.
Same read-out and setting: the same measure for `O=C(O)CO` [Glycolic Acid]: 0.43; for `C[C@H](O)C(=O)O` [L(+)-lactic acid]: 0.31.
On to `O=C(O)c1ccccc1O` [Salicylic acid], for which the pH reading is listed as 2.92.

The next data set deals with onychomycosis.
Experiment: not given
As to conditions: after nail removal; cited from earlier work.
Take `CC(=O)N1CCN(c2ccc(OCC3COC(Cn4ccnc4)(c4ccc(Cl)cc4Cl)O3)cc2)CC1` (stereo not drawn) [ketoconazole]: the “Effectiveness in topically treating onychomycosis” value is listed as “effective”.
Regarding `Clc1ccc(COC(Cn2ccnc2)c2ccc(Cl)cc2Cl)c(Cl)c1` (stereo not drawn) [miconazole], the “Effectiveness in topically treating onychomycosis” value was “effective”.
